In US11136317B2, “NADPH oxidase 4 inhibitors” (ACTELION PHARMACEUTICALS LTD, priority 2015, dated 2021):

Target: T1, human NOX4 (Homo sapiens, UniProt Q9NPH5)
T1 construct: The full-length human NOX4 (NM_016931.3) transcript was cloned; expressed in transfected cells
T1 sequence (Q9NPH5 1-578): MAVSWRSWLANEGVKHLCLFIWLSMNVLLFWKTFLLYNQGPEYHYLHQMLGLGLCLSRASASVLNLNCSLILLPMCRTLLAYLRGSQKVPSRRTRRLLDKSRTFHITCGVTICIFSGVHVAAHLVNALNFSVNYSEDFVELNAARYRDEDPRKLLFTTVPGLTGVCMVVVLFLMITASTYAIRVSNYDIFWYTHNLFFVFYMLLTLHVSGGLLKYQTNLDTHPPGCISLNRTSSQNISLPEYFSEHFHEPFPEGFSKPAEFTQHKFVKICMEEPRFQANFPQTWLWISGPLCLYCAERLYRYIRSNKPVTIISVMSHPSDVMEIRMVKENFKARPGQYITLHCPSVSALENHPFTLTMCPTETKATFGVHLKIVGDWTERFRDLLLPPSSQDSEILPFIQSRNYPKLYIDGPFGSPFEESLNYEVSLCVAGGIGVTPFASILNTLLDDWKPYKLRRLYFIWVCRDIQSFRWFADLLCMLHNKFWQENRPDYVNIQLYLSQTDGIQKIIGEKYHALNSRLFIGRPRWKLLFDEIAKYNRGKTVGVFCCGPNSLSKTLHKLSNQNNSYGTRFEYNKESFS
T1 sequence (P13498 1-195 partner): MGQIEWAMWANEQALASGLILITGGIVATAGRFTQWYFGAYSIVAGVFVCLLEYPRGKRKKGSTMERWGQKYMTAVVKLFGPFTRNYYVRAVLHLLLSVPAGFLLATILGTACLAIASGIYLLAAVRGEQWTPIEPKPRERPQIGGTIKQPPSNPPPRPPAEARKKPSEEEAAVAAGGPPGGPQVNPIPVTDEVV
Experiment: Amplex Red activity assay (cellular H2O2 formation in hNOX4 T-REx-293 cells)
Format: cell-based
Settings: tet-induced 24 h, extracellular H2O2 by Amplex Red, 60 min 25° C., geometric mean if determined several times
Procedure, shortened: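 Tet-induced (1 μg/mL, 24 h) HEK293 T-REx cells stably expressing full-length human NOX4, 20 000 cells/well, exposed to compounds (10 concentrations, 50 μM to 100 nM; 1.25% DMSO) for 60 min at 25°C. Extracellular H2O2 detected by Amplex Red resorufin fluorescence (ex 550/em 600 nm) versus vehicle; IC50 calculated.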

Compound | IC50
O=C(Nc1ccc2sc(N3CC(O)C3)nc2c1)c1ccc2c(c1)CCO2 [Example 109, 2,3-Dihydro-benzofuran-5-carboxylic acid [2-(3-hydroxy-azetidin-1-yl)-benzothiazol-5-yl]-amide] | 1.78 µM
O=C(Nc1ccc2sc(N3CCC(O)CC3)nc2c1)c1ccc2c(c1)CCO2 [Example 110, 2,3-Dihydro-benzofuran-5-carboxylic acid [2-(4-hydroxy-piperidin-1-yl)-benzothiazol-5-yl]-amide] | 2.03 µM
O=C(Nc1ccc2sc(N3CC[C@@H](O)C3)nc2c1)c1ccc2c(c1)CCO2 [Example 112, 2,3-Dihydro-benzofuran-5-carboxylic acid [2-((R)-3-hydroxy-pyrrolidin-1-yl)-benzothiazol-5-yl]-amide] | 2.27 µM
COCC1CCCN1c1nc2cc(NC(=O)c3ccc4c(c3)CCO4)ccc2s1 (stereo not drawn) [Example 113, 2,3-Dihydro-benzofuran-5-carboxylic acid [2-(2-methoxymethyl-pyrrolidin-1-yl)-benzothiazol-5-yl]-amide] | 3.25 µM
O=C(Nc1ccc2sc(N3CCC[C@H](O)C3)nc2c1)c1ccc2c(c1)CCO2 [Example 114, 2,3-Dihydro-benzofuran-5-carboxylic acid [2-((S)-3-hydroxy-piperidin-1-yl)-benzothiazol-5-yl]-amide] | 2.94 µM
O=C(Nc1ccc2sc(N3CCC4(COC4)C3)nc2c1)c1ccc2c(c1)CCO2 [Example 115, 2,3-Dihydro-benzofuran-5-carboxylic acid [2-(2-oxa-6-aza-spiro[3.4]oct-6-yl)-benzothiazol-5-yl]-amide] | 3.41 µM
O=C(Nc1ccc2sc(N3CCC[C@@H](O)C3)nc2c1)c1ccc2c(c1)CCO2 [Example 116, 2,3-Dihydro-benzofuran-5-carboxylic acid [2-((R)-3-hydroxy-piperidin-1-yl)-benzothiazol-5-yl]-amide] | 2.17 µM
CN(C)CC1CCCN1c1nc2cc(NC(=O)c3ccc4c(c3)CCO4)ccc2s1 (stereo not drawn) [Example 117, 2,3-Dihydro-benzofuran-5-carboxylic acid [2-(2-dimethylaminomethyl-pyrrolidin-1-yl)-benzothiazol-5-yl]-amide] | 3.76 µM
O=C(Nc1ccc2oc(N3CCC3)nc2c1)c1ccc2c(c1)CCO2 [Example 118, 2,3-Dihydro-benzofuran-5-carboxylic acid (2-azetidin-1-yl-benzooxazol-5-yl)-amide] | 0.504 µM
CCNc1nc2cc(NC(=O)c3ccc4c(c3)CCO4)ccc2o1 [Example 119, 2,3-Dihydro-benzofuran-5-carboxylic acid (2-ethylamino-benzooxazol-5-yl)-amide] | 0.99 µM
O=C(Nc1ccc2oc(N3CC(c4ccccn4)C3)nc2c1)c1ccc2c(c1)CCO2 [Example 120, 2,3-Dihydro-benzofuran-5-carboxylic acid [2-(3-pyridin-2-yl-azetidin-1-yl)-benzooxazol-5-yl]-amide] | 2.34 µM
O=C(Nc1ccc2oc(N3CC(F)(F)C3)nc2c1)c1ccc2c(c1)OCO2 [Example 121, Benzo[1,3]dioxole-5-carboxylic acid [2-(3,3-difluoro-azetidin-1-yl)-benzooxazol-5-yl]-amide] | 9.53 µM
O=C(Nc1ccc2oc(N3CC(O)C3)nc2c1)c1ccc2c(c1)OCO2 [Example 122, Benzo[1,3]dioxole-5-carboxylic acid [2-(3-hydroxy-azetidin-1-yl)-benzooxazol-5-yl]-amide] | 2.11 µM
O=C(Nc1ccc2oc(N3CCC34CCC4)nc2c1)c1ccc2c(c1)OCO2 [Example 123, Benzo[1,3]dioxole-5-carboxylic acid [2-(1-aza-spiro[3.3]hept-1-yl)-benzooxazol-5-yl]-amide] | 0.434 µM
O=C(Nc1ccc2oc(N3CCC34COC4)nc2c1)c1ccc2c(c1)OCO2 [Example 124, Benzo[1,3]dioxole-5-carboxylic acid [2-(6-oxa-1-aza-spiro[3.3]hept-1-yl)-benzooxazol-5-yl]-amide] | 0.414 µM
